Data set [1] deals with T1, Insulin-like growth factor 1 receptor (Homo sapiens, UniProt P08069). As to the kind of experiment: Inhibition of IGF-1R.
In data set [2] the target is Mitogen-activated protein kinase 8 (Homo sapiens, UniProt P45983). As to the kind of experiment: Inhibition of His-tagged JNK1.
Data set [3] deals with T1, Insulin-like growth factor 1 receptor. Nature of the data set: Inhibition of phospho IGFR1 by cellular assay.
Data set [4] has the same target. Nature of the data set: Inhibition of phospho IGFR1 by cellular assay in presence of 2%HSA.
A short description of data set [5]: Clearance in rat at 2.6 mg/kg, iv and […] mg/kg, po. The format is ADME, organism-based. Conditions: in vivo.
Data set [6] in a line: Oral bioavailability in rat at 13 mg/kg, po. The format is ADME, organism-based. Conditions: in vivo.
Data set [7] deals with Rattus norvegicus. As to the kind of experiment: Dose normalized AUC (0 to 8 hrs) in rat at 13 mg/kg, po. The format is ADME, organism-based. Further details: time < 8 hr, dose 13 mg/kg, route oral. Conditions: in vivo.
The nature of data set [8]: Cmax in rat at 13 mg/kg, po. As to conditions: in vivo. The format is ADME, organism-based. More on the design: dose 13 mg/kg, route oral.
For data set [9], the target named is Mitogen-activated protein kinase 10 (Homo sapiens, UniProt P53779). Nature of the data set: Inhibition of human His-tagged JNK3.
Sequence of Mitogen-activated protein kinase 10 (P53779 whole entry): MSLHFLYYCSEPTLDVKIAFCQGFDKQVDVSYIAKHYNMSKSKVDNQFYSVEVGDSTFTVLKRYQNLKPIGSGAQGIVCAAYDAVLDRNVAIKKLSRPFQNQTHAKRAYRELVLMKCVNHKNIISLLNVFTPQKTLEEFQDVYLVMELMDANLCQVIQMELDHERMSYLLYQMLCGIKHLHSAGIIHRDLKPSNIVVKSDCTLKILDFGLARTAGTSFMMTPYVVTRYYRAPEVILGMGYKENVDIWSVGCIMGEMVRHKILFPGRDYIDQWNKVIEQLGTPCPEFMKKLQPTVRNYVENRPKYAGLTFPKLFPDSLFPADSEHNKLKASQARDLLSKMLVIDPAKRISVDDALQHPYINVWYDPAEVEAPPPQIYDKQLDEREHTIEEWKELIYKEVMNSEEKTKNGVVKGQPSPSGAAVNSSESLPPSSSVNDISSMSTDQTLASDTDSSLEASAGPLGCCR
Data set [10] in a line: Clearance in rat at 2.5 mg/kg, iv and […] mg/kg, po. The format is ADME, organism-based. As to conditions: in vivo.
Data set [11] in a line: Cmax in rat at 9 mg/kg, po. The format is ADME, organism-based. More on the design: dose 9 mg/kg, route oral. Conditions: in vivo.
In data set [12] the test system is Rattus norvegicus. Nature of the data set: Dose normalized AUC (0 to 8 hrs) in rat at 9 mg/kg, po. The format is ADME, organism-based. Further details: time < 8 hr, dose 9 mg/kg, route oral. Conditions: in vivo.
A short description of data set [13]: Oral bioavailability in rat at 10 mg/kg, po. As to conditions: in vivo. The format is ADME, organism-based.
Data set [14] can be described thus: Clearance in rat at 2.5 mg/kg, iv and 10 mg/kg, po. The format is ADME, organism-based. As to conditions: in vivo.
Data set [15] in a line: Cmax in rat at 10 mg/kg, po. The format is ADME, organism-based. More on the design: dose 10 mg/kg, route oral. As to conditions: in vivo.
The test system of data set [16] is Rattus norvegicus. As to the kind of experiment: Dose normalized AUC (0 to 8 hrs) in rat at 10 mg/kg, po. The format is ADME, organism-based. Further details: time < 8 hr, dose 10 mg/kg, route oral. As to conditions: in vivo.
The target of a further data set is Insulin receptor (Homo sapiens, UniProt P06213). As to the kind of experiment: Inhibition of IR.
The target of data set [17] is ALK tyrosine kinase receptor (Homo sapiens, UniProt Q9UM73). Nature of the data set: Inhibition of ALK.
Sequence of ALK tyrosine kinase receptor (Q9UM73 whole entry): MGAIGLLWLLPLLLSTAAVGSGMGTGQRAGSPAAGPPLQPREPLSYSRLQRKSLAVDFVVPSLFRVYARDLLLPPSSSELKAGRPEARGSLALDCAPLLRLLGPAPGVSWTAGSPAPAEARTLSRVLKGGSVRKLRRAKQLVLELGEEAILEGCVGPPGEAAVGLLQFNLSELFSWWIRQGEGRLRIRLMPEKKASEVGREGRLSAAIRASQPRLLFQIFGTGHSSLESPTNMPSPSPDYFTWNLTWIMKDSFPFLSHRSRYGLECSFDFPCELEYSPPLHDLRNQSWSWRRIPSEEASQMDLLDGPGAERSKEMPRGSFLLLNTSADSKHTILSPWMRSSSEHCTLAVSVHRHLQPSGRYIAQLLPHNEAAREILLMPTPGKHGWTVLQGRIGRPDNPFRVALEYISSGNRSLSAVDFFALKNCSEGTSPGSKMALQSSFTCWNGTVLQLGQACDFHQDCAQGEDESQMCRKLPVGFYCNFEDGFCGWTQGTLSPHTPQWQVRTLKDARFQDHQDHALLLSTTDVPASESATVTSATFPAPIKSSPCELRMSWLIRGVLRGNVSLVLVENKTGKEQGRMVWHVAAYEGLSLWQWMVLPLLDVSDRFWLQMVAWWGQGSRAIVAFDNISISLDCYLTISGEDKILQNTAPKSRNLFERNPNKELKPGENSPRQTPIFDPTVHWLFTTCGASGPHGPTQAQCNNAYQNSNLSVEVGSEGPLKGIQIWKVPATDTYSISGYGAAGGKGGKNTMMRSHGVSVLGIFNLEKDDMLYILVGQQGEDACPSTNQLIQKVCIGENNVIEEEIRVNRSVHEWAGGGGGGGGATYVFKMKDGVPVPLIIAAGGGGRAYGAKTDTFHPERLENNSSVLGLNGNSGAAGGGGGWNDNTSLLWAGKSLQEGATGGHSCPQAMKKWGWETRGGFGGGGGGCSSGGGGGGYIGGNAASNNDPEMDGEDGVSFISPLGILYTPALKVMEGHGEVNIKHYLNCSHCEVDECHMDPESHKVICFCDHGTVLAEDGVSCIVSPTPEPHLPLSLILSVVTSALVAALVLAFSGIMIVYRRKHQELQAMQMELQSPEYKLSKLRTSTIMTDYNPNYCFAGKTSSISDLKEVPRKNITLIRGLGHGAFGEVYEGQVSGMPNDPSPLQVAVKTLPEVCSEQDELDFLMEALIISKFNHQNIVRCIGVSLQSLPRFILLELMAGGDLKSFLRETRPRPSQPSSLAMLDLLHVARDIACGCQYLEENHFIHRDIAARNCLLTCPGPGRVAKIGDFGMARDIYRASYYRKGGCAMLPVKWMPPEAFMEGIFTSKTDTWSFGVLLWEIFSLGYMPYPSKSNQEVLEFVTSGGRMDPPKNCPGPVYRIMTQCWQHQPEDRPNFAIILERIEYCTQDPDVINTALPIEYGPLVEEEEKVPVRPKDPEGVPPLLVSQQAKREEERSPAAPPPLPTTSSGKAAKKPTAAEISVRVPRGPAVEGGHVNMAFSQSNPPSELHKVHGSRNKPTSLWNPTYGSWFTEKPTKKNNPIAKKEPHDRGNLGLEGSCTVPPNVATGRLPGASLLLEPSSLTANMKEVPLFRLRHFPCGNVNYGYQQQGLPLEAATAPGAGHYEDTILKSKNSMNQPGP

SMILES strings stand for the structures. pIC50: −log10 of the molar value.

Sequence of Mitogen-activated protein kinase 8 (P45983 whole entry): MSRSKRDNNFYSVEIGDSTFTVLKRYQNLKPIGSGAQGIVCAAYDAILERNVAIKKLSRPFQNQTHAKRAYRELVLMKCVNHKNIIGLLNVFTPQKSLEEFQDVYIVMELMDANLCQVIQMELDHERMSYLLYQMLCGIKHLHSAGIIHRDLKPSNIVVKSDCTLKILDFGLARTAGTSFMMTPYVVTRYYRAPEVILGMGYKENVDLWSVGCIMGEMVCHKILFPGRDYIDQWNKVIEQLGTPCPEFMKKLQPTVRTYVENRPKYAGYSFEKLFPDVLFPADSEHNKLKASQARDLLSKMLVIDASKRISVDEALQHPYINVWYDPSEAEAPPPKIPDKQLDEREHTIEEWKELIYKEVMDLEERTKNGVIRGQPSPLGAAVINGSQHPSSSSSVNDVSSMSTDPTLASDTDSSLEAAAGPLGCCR
T1 sequence (P08069 31-736 limits assumed): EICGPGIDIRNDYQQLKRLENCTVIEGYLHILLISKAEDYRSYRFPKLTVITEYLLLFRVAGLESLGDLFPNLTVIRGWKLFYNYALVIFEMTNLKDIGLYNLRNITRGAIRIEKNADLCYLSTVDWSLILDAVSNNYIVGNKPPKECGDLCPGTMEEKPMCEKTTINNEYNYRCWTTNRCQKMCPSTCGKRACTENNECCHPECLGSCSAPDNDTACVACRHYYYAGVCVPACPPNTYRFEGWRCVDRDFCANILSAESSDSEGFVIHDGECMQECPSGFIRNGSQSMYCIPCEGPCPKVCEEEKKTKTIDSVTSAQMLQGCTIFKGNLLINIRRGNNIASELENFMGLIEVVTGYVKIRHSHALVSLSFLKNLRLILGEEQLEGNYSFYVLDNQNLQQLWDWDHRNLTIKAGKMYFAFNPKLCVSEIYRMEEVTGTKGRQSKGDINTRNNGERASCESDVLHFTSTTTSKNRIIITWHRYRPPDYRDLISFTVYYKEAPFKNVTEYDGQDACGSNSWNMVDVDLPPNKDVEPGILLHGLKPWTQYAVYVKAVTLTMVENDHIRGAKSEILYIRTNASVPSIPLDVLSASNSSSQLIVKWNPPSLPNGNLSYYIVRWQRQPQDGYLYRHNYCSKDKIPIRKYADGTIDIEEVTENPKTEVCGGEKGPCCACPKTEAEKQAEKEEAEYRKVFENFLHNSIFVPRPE
T1 sequence (P08069 741-1367 limits assumed): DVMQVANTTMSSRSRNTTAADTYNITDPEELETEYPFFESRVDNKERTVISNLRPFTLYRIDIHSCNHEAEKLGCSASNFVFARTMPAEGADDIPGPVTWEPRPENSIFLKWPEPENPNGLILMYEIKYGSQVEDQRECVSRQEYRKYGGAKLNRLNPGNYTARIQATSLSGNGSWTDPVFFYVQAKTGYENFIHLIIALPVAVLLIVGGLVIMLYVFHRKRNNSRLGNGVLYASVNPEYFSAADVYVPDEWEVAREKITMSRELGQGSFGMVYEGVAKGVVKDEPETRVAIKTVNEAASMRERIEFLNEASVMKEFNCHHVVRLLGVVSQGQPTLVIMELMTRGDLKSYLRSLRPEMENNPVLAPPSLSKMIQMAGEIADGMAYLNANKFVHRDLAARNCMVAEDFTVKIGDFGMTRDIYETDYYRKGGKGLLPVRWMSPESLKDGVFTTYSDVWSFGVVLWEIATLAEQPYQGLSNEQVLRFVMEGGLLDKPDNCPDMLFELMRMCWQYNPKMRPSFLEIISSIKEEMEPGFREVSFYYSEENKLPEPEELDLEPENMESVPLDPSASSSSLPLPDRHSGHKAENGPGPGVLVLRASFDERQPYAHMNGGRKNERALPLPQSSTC

What is called pIC50 is −log10 of the IC50, conventionally taken in molar units. Regarding `COc1ccc(CCCN(C)C)cc1Nc1nc(Nc2cccc(F)c2C(N)=O)c2cc[nH]c2n1`, the values for the pIC50 in data set [1], in data set [2] and in data set [3] were 7.89, 5.30 and 6.67, respectively.
As usually defined, the bioavailability is dose-corrected exposure relative to a reference, in per cent. What is called Cmax is the maximum level reached in the sampled fluid or tissue. With `COc1cc2c(cc1Nc1nc(Nc3cccc(F)c3C(N)=O)c3cc[nH]c3n1)N(C(=O)CN(C)C)CC2`, the values for the pIC50 in data set [4], in data set [2] and in [3] were 6.31, 5.80 and 7.25, respectively. Further, the clearance in data set [5] came to 48 mL/min/kg. For the same molecule, the bioavailability in [6] was 61%. For the same molecule, the AUC in the data set on Rattus norvegicus [7] came out at 190 ng·h/mL/mg/kg. This molecule came in with a Cmax in data set [8] of 455 ng/mL.
In the case of `CNCC(=O)N1CCc2cc(OC)c(Nc3nc(Nc4cccc(F)c4C(N)=O)c4cc[nH]c4n3)cc21`, the pIC50 is 8.70 in data set [1], 5.70 in [2] and 7.10 in data set [3].
Take `COc1cc(C)c(N2CCN(C(C)C)CC2)cc1Nc1nc(Nc2cccc(F)c2C(N)=O)c2cc[nH]c2n1`: the negative logarithm of the IC50 (pIC50) was 5.41 in [2] and 5.20 in [9].
As for `COc1cc(C)c(N(C)C(=O)CN(C)C)cc1Nc1nc(Nc2cccc(F)c2C(N)=O)c2cc[nH]c2n1` [GSK-2219385A], the pIC50 in data set [1] is 7.20; in data set [2], 5.00; in data set [3] it was 5.76.
As for `COc1cc2c(cc1Nc1nc(Nc3cccc(F)c3C(N)=O)c3cc[nH]c3n1)N(C(=O)CCN1CCOCC1)CC2`, the pIC50 in data set [1] was 8.22; in data set [2] it was 6.60; in [3] it was 6.53.
Take `CCCN1CCC(Oc2ccc(OC)c(Nc3nc(Nc4cccc(F)c4C(N)=O)c4cc[nH]c4n3)c2)CC1`: the pIC50 in data set [1] is 8.22; in data set [2], 5.90; in [3], 6.03.
On to `COc1ccc(OCCCN(C)C)cc1Nc1nc(Nc2cccc(F)c2C(N)=O)c2cc[nH]c2n1`, for which the pIC50 in data set [1] is 8.10; in data set [2] it was 6.20; in [3], 7.09. Besides, the clearance in data set [10] stood at 112 mL/min/kg. In addition, the bioavailability in data set [6] turned out to be 60%. Further, the AUC in the data set on Rattus norvegicus [7] stood at 85 ng·h/mL/mg/kg. Further, the peak level in data set [8] (Cmax) was 192 ng/mL.
Take `COc1cc2c(cc1Nc1nc(Nc3cccc(F)c3C(N)=O)c3cc[nH]c3n1)N(CCN(C)C)CC2`: the pIC50 in data set [1] was 7.40; in data set [2], 7.00; in data set [3], 6.10.
With `COc1cc2c(cc1Nc1nc(Nc3cccc(F)c3C(N)=O)c3cc[nH]c3n1)N(C(=O)Cn1ccnc1)CC2`, the pIC50 in data set [1] was 7.49; in data set [2], 6.20; in data set [3] it was 5.11.
The matching figures for `COc1cc(Cl)c(OCCCN(C)C)cc1Nc1nc(Nc2cccc(F)c2C(N)=O)c2cc[nH]c2n1`: 7.89, 5.90 and 6.05.
Take `CCCN1CCC(Oc2cc(Nc3nc(Nc4cccc(F)c4C(N)=O)c4cc[nH]c4n3)c(OC)cc2Cl)CC1` [GSK-1713088A]: the pIC50 in data set [1] is 7.60; in data set [2], 5.40; in [3], 5.27.
For the molecule `CCN(CC)CC(=O)N1CCc2cc(OC)c(Nc3nc(Nc4cccc(F)c4C(N)=O)c4cc[nH]c4n3)cc21`, the negative logarithm of the IC50 (pIC50) is 8.70 in [1], 6.00 in data set [2] and 7.07 in [3].
As to `COc1cc(C)c(CCCN(C)C)cc1Nc1nc(Nc2cccc(F)c2C(N)=O)c2cc[nH]c2n1`, the pIC50 is 7.89 in data set [1], 6.30 in data set [2] and 6.08 in [3].
With `COc1cc2c(cc1Nc1nc(Nc3cccc(F)c3C(N)=O)c3cc[nH]c3n1)N(C(=O)CN1CCC1)CC2`, the results for the pIC50 in data set [1], in [2] and in [3] were 9.00, 5.70 and 6.89, respectively.
Regarding `COc1ccc(N(C)C(=O)CN(C)C)cc1Nc1nc(Nc2cccc(F)c2C(N)=O)c2cc[nH]c2n1`, the pIC50 in data set [1] is 7.30; in data set [2], 5.00; in [3], 6.42.
For `COc1ccc(N2CCN(C(C)C)CC2)cc1Nc1nc(Nc2cccc(F)c2C(N)=O)c2cc[nH]c2n1`, the Cmax in [11] was 233 ng/mL. Further, the pIC50 in data set [2] is 5.50; in data set [9], 5.30; in data set [3] it was 6.70. The molecule also showed an AUC with Rattus norvegicus [12] of 133 ng·h/mL/mg/kg.
As to `CNC(=O)c1c(F)cccc1Nc1nc(Nc2cc3c(cc2OC)CCN3C(=O)CN(C)C)nc2[nH]ccc12`, the bioavailability in [13] was found to be 98%. The molecule also gave a clearance in data set [14] of 73 mL/min/kg. In data set [15], this molecule showed a Cmax of 365 ng/mL. In addition, the AUC with Rattus norvegicus [16] stood at 210 ng·h/mL/mg/kg.
For `COc1cc2c(cc1Nc1nc(Nc3cccc(F)c3C(N)=O)c3cc[nH]c3n1)N(C(=O)CN1CCCCC1)CCC2`, the pIC50 in [1] was 9.00; in [2] it was 5.60; in [3], 7.96.
Take `COc1cc2c(cc1Nc1nc(Nc3cccc(F)c3C(N)=O)c3cc[nH]c3n1)N(C(=O)CCN(C)C)CCC2`: the pIC50 in [1] is 8.00; in data set [2] it was 5.10; in data set [3], 6.68.
Take `COc1cc2c(cc1Nc1nc(Nc3cccc(F)c3C(N)=O)c3cc[nH]c3n1)N(C(=O)CCN(C)C)CC2`: the pIC50 in data set [1] is 8.10; in data set [2] it was 6.10; in [3], 6.72.
`COc1cc2c(cc1Nc1nc(Nc3cccc(F)c3C(N)=O)c3cc[nH]c3n1)N(C(=O)CN1CCOCC1)CC2`: the figures for the negative-log IC50 (pIC50) in [1], in data set [2] and in [3] were 7.89, 6.90 and 7.14, respectively.
For `COc1cc(C)c(NC(=O)CN(C)C)cc1Nc1nc(Nc2cccc(F)c2C(N)=O)c2cc[nH]c2n1` [GSK-2213727A], the pIC50 in data set [1] is 9.30; in [2], 5.70; in data set [3], 7.42.
The matching figures for `CCN(C)CC(=O)N1CCc2cc(OC)c(Nc3nc(Nc4cccc(F)c4C(N)=O)c4cc[nH]c4n3)cc21`: 8.52, 5.50 and 7.72.
With `COc1cc2c(cc1Nc1nc(Nc3cccc(F)c3C(N)=O)c3cc[nH]c3n1)N(C(=O)CN)CC2`, the results for the pIC50 in [1], in data set [2] and in data set [3] were 8.40, 6.00 and 6.12, respectively.
With `COc1cc2c(cc1Nc1nc(Nc3cccc(F)c3C(N)=O)c3cc[nH]c3n1)N(C(C)=O)CC2`, the pIC50 was 8.22 in data set [1], 6.90 in data set [2] and 6.56 in [3].
Consider `COc1cc(N2CCN(C(C)C)CC2)ccc1Nc1nc(Nc2cccc(F)c2C(N)=O)c2cc[nH]c2n1`, for which the pIC50 was 7.89 in data set [2], 8.80 on Insulin receptor, 7.00 in data set [9] and 9.30 in data set [17].
Regarding `COc1cc2c(cc1Nc1nc(Nc3cccc(F)c3C(N)=O)c3cc[nH]c3n1)N(C(C)=O)CCC2`, the pIC50 in [1] was 7.60; in data set [2], 5.10; in [3], 5.70.
The matching figures for `COc1cc2c(cc1Nc1nc(Nc3cccc(F)c3C(N)=O)c3cc[nH]c3n1)N(C(=O)CN1CCN(C(C)C)CC1)CC2` [GSK-1751853A]: 7.49, 5.80 and 6.42.
Consider `COc1cc2c(cc1Nc1nc(Nc3cccc(F)c3C(N)=O)c3cc[nH]c3n1)N(C(=O)CN(C)C)CCC2`, for which the negative logarithm of the IC50 (pIC50) was 9.00 in data set [1], 5.20 in [2] and 7.80 in data set [3].
On to `COc1cc2c(cc1Nc1nc(Nc3cccc(F)c3C(N)=O)c3cc[nH]c3n1)N(C(=O)CCN1CCN(C(C)C)CC1)CC2`, for which the figures for the negative logarithm of the IC50 (pIC50) in data set [1], in [2] and in data set [3] were 8.40, 5.80 and 6.19, respectively.
For the molecule `COc1ccc(NC(=O)CN(C)C)cc1Nc1nc(Nc2cccc(F)c2C(N)=O)c2cc[nH]c2n1`, the pIC50 in data set [1] is 9.00; in data set [2] it was 5.50; in [3], 7.55.
The matching figures for `COc1cc2c(cc1Nc1nc(Nc3cccc(F)c3C(N)=O)c3cc[nH]c3n1)N(C(=O)CN(C)OC)CC2`: 7.30, 6.10 and 6.06.
On to `COc1cc2c(cc1Nc1nc(Nc3cccc(F)c3C(N)=O)c3cc[nH]c3n1)N(C(=O)CN1CCCC1)CC2`, for which the negative-log IC50 (pIC50) in data set [1] was 9.00; in data set [2], 5.90; in [3], 7.62.

The record behind these values is ChEMBL document CHEMBL1154536, “Optimization of 4,6-bis-anilino-1H-pyrrolo[2,3-d]pyrimidine IGF-1R tyrosine kinase inhibitors towards JNK selectivity” (Bioorg Med Chem Lett, 2009).
